Laboratory results as given in patent US20130017163A1, “HALOGENATED PHENOLS FOR DIAGNOSTICS, ANTIOXIDANT PROTECTION AND DRUG DELIVERY” (priority 2011, published 2013).

Assays:
[1] = Cleavage of C—C bond during oxidative dehalogenation reaction; assay type: physicochemical; settings: oxidative or free radical-mediated dehalogenation
Excerpt: It has also been discovered that other types of bonds or linkages may also be cleaved by oxidative or free radical-mediated dehalogenation of the phenol ring. For example, as described herein, it has now been observed that a carbonyl linkage, a nitrogen linkage, a sulfinyl linkage and possibly a C—C bond on the phenol ring may also be cleaved by the oxidative dehalogenation reaction. These bonds are also considered stable, and their cleavage in connection with the dehalogenation reaction is surprising as well. One caveat with the C—C bond or linkage is that depending on the particular starting compound structure and the substituents or groups attached to the halogenated phenol ring via the C—C bond, the C—C bond or linkage may or may not be generally cleaved during or following the dehalogenation reaction (see below). […] However, other compounds do become cleaved. It is important to note that whether a C—C bond of a particular starting compound is “cleavable,” or becomes cleaved, may not be all-or-nothing (i.e., the C—C bond may be considered non-cleavable even though a small or minute amount of cleavage may occur, and vice versa). Thus, the amount or percentage of cleavage may be partial with the alternatively cleaved or non-cleaved product being possibly undetected or minute. […]

[2] = Spontaneous ether cleavage and deiodination in buffered aqueous solution exposed to sunlight; assay type: physicochemical; settings: about 1 mM in carbonate buffer (pH 8.0), sunlight for about one hour
Excerpt: In contrast to reductive deiodination, spontaneous dehalogenation (e.g., deiodination) of a halogentated phenol ring in the presence of an oxidizing agent(s) and/or free radical(s) with cleavage of a chemical linkage, such as an ether linkage, etc., between the phenol ring and a conjugated compound has not been described. According to the present invention, cleavage of the ether linkage between the aromatic rings of thyroid hormone may form visibly colored quinone and iodine-containing products in buffered aqueous solutions in vitro, and this ether cleavage reaction may be accelerated under basic pH conditions and with exposure to ionizing radiation or light. These conditions favor the increased formation of oxidizing agents and/or free radicals, which are believed to promote the reaction. […] A quinone and an iodotyrosine product are also formed by cleavage of the ether linkage during the reaction. According to embodiments of the present invention, a spontaneous reaction of dehalogenation and cleavage of a chemical bond is proposed for the targeted delivery and release of a drug compound at or to sites of inflammation or disease. This spontaneous reaction is further proposed as a basis for scavenging free radicals and/or oxidative agents (FROS) as well as for the creation of a detectable compound(s) that may be used for diagnostic purposes.

[3] = system: sites of the wound or injury; settings: mice with small injuries or wounds (cuts, scratches); data not shown
spontaneous tumors = settings: 10 mg by gavage; X-ray imaging about two hours after; mice with spontaneous tumors; same mice before treatment showed no foci
Excerpt: As described above, oxidative foci or tumors may be identified by X-ray radiographic imaging of animals following administration of an indigogenic compound of the present invention. The radio-opaque indigo-like product formed and deposited with residence time in FROS-containing tumor tissues may then be detected.
In this example, female C3H/HeN mice were obtained as multiparous retired breeders (i.e., after 3 to 4 litters) that were positive for a mammary tumor virus. See, e.g., Sellitti, D. F., Tseng, Y-C., and Latham, K. R., “Effect of 3,5,3′-Triiodo-L-thyronine on the Incidence and Growth Kinetics of Spontaneous Mammary Tumors in C3H/HeN Mice,” Cancer Research, 41: 5015-19 (1981), the entire contents and disclosure of which are incorporated herein by reference. Mice showing spontaneous tumors were given 10 mg of 5-Iodo-Indoxyl-3′,5′-Diiodo-4′-hydroxy ether substrate (product of Example 4) by gavage. These mice were then subjected to X-ray imaging of the tumors about two hours after being fed the iodo-indigogenic compound. […] When developed, the X-ray film appears dark in areas where more transmission occurs and light in areas where less transmission occurs.

## N[C@@H](Cc1ccc(O)c(I)c1)C(=O)O [MIT, 3-iodo-4-hydroxy-L-phenylalanine]
[1]
  cleavage of C—C bond with the dehalogenation reaction: generally not to be cleaved

## N[C@@H](Cc1cc(I)c(Oc2cc(I)c(O)c(I)c2)c(I)c1)C(=O)O [thyroxine]
[2]
  cleavage of ether linkage with iodide release: the ether linkage is broken spontaneously

## Oc1c(I)cc(Oc2c[nH]c3ccc(I)cc23)cc1I [Example 4, 5-Iodo-Indolyl-3′,5′-Diiodo-4′-hydroxyl-p-Phenol Ether]
[3]
  X-ray detection at sites of wound or injury: strong detection was observed at the sites of the wound or injury
Spontaneous tumors
  radio-opaque tumor regions or foci by X-ray: radio-opaque tumor regions or foci
